Assays:
[1] = molecular target: human recombinant BACE1 (Homo sapiens (Human), UniProt P56817); assay: In vitro enzymatic BACE1 FRET assay; format: biochemical; conditions: read-out: IC50 IP (μM) BACE1 enzyme
In short: (§1)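 Tris addition raises the pH to neutral to stop the reaction before fluorescence is measured at 590 nm emission with 488 nm excitation.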

[2] = molecular target: human recombinant BACE2 (Homo sapiens (Human), UniProt Q9Y5Z0); assay: In vitro enzymatic BACE2 FRET assay; format: biochemical; conditions: read-out: IC50 IP (μM) BACE2 enzyme
Sequence of human recombinant BACE2 (Q9Y5Z0 63-518): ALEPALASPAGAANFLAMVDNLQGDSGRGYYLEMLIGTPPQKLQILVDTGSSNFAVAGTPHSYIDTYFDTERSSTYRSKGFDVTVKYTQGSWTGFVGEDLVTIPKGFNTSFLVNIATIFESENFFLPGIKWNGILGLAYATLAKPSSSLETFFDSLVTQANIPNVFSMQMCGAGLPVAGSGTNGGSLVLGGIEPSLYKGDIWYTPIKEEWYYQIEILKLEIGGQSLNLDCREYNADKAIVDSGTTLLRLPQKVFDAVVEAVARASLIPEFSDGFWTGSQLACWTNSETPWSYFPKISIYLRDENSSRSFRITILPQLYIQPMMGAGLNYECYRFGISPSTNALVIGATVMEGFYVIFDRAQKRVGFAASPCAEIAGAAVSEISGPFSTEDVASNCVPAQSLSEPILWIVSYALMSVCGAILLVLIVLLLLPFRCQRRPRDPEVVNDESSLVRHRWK
In short: as §1

[3] = tested on: Aβ40 in conditioned medium of cells stably expressing Amyloid Precursor Protein (APP); assay: In vitro BACE-1 cell-based assay (Aβ40 sandwich ELISA); conditions: read-out: IC50 IP (μM) BACE1 cell
In short: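 Read-out: time-resolved fluorescence (Streptavidin-Europium) of Aβ40 captured by pAb40 and detected with biotinylated 6E10 from supernatants of APP-stable cells. Cells were exposed to compound for 24 h, 10-point dose response, top dose 100 μM or 10 μM, 0.1% DMSO. IC50 fitted to percent of control.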

[4] = molecular target: Recombinant Cat D (Homo sapiens (Human), UniProt P07339); assay: In vitro enzymatic Cathepsin D (Cat D) FRET assay; format: biochemical; conditions: read-out: IC50 IP (μM) CatD
Sequence of Recombinant Cat D (P07339 65-412): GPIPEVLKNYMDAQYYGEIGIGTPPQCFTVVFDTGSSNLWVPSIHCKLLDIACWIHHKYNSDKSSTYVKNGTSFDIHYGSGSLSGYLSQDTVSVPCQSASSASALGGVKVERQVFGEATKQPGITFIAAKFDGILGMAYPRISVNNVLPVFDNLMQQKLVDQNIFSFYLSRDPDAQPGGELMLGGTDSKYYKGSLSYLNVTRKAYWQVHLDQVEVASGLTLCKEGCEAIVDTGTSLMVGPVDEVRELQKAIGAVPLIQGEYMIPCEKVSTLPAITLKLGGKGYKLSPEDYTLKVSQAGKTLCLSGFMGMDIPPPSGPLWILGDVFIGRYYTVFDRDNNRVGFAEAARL
In short: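 Assay pH is 3.5 (0.05 M citrate, 5 mM CHAPS, 10% DMSO final) with Cat D from CHO cells. A 20 nM quenched peptide substrate is cleaved over one hour; the reaction is ended with Tris and read by fluorescence (ex 500, em 580 nm).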

[5] = tested on: Aβ 40 in rat CSF; assay: In vivo inhibition of beta-secretase: Aβ40 reduction in rat CSF; conditions: 10 mpk, after 4 h
In short: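 Male Sprague Dawley rats (200 g) dosed orally in 2% HPMC, 1% Tween80, pH 2.2, at 3, 10 or 30 mg/kg; CSF and brain taken 4 h later. Brain homogenate centrifuged at 355,000 g; Aβ40 measured by ECL sandwich ELISA (4G8 capture, Abeta40 C-terminal Fab detection), as % reduction versus vehicle controls.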

[6] = tested on: Aβ 40 in rat brain; assay: In vivo inhibition of beta-secretase: Aβ40 reduction in rat brain; conditions: 10 mpk, after 4 h
In short: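 Rats were dosed by oral gavage at up to 100 mg/kg in 2% HPMC, 1% Tween80, pH 2.2, with vehicle-only controls. Supernatant Aβ40 was measured by ECL sandwich ELISA with biotinylated-4G8 capture and C-terminal Fab40 detection.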

Sequence of human recombinant BACE1 (P56817 46-501): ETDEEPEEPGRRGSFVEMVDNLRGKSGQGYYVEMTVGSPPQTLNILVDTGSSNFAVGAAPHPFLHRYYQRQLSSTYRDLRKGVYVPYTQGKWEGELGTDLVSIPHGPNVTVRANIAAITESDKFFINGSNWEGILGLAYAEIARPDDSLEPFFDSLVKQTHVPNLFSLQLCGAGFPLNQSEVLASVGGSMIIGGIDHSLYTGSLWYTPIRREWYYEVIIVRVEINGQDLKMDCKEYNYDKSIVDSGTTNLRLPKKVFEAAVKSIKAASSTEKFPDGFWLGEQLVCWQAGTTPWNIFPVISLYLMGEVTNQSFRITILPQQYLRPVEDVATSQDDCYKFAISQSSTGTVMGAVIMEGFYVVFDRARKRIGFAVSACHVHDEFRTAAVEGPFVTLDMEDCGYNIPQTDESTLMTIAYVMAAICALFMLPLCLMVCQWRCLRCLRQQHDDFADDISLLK

IC50 [1] [µM] | IC50 [2] [µM] | IC50 [3] [µM] | IC50 [4] [µM] | Compound | % Aβ 40 reduction in rat CSF at 10 mpk [5] [%] | % Aβ 40 reduction in rat brain at 10 mpk [6] [%]
0.00613 | 0.0163 | 0.0137 | 145 | C[C@]1(c2cc(Nc3ncnc4cc(C#N)cnc34)cc(F)c2F)N=C(N)S[C@@]2(CF)C[C@H]21 [Example 801, 4-((3-((1S,5S,6S)-3-amino-1-(fluoromethyl)-5-methyl-2-thia-4-azabicyclo[4.1.0]hept-3-en-5-yl)-4,5-difluorophenyl)amino)pyrido[3,2-d]pyrimidine-7-carbonitrile] | 74 | 68
0.000992 | 0.0334 | 0.00497 | 310 | C[C@]1(c2cc(Nc3nccc4nc(OCc5ncco5)cnc34)cc(F)c2F)N=C(N)S[C@@]2(CF)C[C@H]21 [Example 802, N-(3-((1S,5S,6S)-3-amino-1-(fluoromethyl)-5-methyl-2-thia-4-azabicyclo[4.1.0]hept-3-en-5-yl)-4,5-difluorophenyl)-2-(1,3-oxazol-2-ylmethoxy)pyrido[3,4-b]pyrazin-5-amine] | 59 | 50
0.000222 | 0.0189 | 0.00497 | 27 | C#CCOc1cnc2c(Nc3cc(F)c(F)c([C@@]4(C)N=C(N)S[C@@]5(C(F)F)C[C@@H]45)c3)nccc2n1 [Example 805, N-(3-((1S,5S,6S)-3-amino-1-(difluoromethyl)-5-methyl-2-thia-4-azabicyclo[4.1.0]hept-3-en-5-yl)-4,5-difluorophenyl)-2-(2-propyn-1-yloxy)pyrido[3,4-b]pyrazin-5-amine] | 59 | 53
0.000489 | 0.0242 | 0.00772 | 122 | C#CCOc1cnc2c(Nc3cc(F)c(F)c([C@@]4(C)N=C(N)S[C@@]5(CF)C[C@H]54)c3)nccc2n1 [Example 806, N-(3-((1S,5S,6S)-3-amino-1-(fluoromethyl)-5-methyl-2-thia-4-azabicyclo[4.1.0]hept-3-en-5-yl)-4,5-difluorophenyl)-2-(2-propyn-1-yloxy)pyrido[3,4-b]pyrazin-5-amine] | 70 | 65
0.0009 | 0.0258 | 0.002 | 447 | C#CCOc1cnc2c(Nc3cc(F)c(F)c([C@@]4(C)N=C(N)S[C@@]5(CF)C[C@H]54)c3)ncnc2c1 [Example 813, N-(3-((1S,5S,6S)-3-amino-1-(fluoromethyl)-5-methyl-2-thia-4-azabicyclo[4.1.0]hept-3-en-5-yl)-4,5-difluorophenyl)-7-(2-propyn-1-yloxy)pyrido[3,2-d]pyrimidin-4-amine] | 68 | 50
0.000791 | 0.0296 | 0.00186 | 351 | C#CCOc1cnc2c(Nc3ccc(F)c([C@@]4(C)N=C(N)S[C@@]5(CF)C[C@H]54)c3)nccc2n1 [Example 823, N-(3-((1S,5S,6S)-3-amino-1-(fluoromethyl)-5-methyl-2-thia-4-azabicyclo[4.1.0]hept-3-en-5-yl)-4-fluorophenyl)-2-(2-propyn-1-yloxy)pyrido[3,4-b]pyrazin-5-amine] | 78 | 78
0.000771 | 0.263 | 0.0207 | 810 | C#C[C@H](C)Oc1cnc2c(Nc3ccc(F)c([C@@]4(C)N=C(N)S[C@@]5(CF)C[C@H]54)c3)nccc2n1 [Example 827, N-(3-((1S,5S,6S)-3-amino-1-(fluoromethyl)-5-methyl-2-thia-4-azabicyclo[4.1.0]hept-3-en-5-yl)-4-fluorophenyl)-2-(((1S)-1-methyl-2-propyn-1-yl)oxy)pyrido[3,4-b]pyrazin-5-amine] | 41 | 19

The remaining lines, values behind:

Compound | IC50 [1] [µM] | IC50 [2] [µM] | IC50 [3] [µM] | IC50 [4] [µM] | % Aβ 40 reduction in rat CSF at 10 mpk [5] [%] | % Aβ 40 reduction in rat brain at 10 mpk [6] [%]
COC[C@]12C[C@H]1[C@@](C)(c1cc(Nc3nccc4cc(OCc5ncco5)cnc34)cc(F)c1F)N=C(N)S2 [Example 727, N-(3-((1S,5S,6S)-3-amino-1-(methoxymethyl)-5-methyl-2-thia-4-azabicyclo[4.1.0]hept-3-en-5-yl)-4,5-difluorophenyl)-3-(1,3-oxazol-2-ylmethoxy)-1,7-naphthyridin-8-amine] | 0.00798 | 0.359 | 0.00962 | 779 | 38 | 18
COC[C@]12C[C@H]1[C@@](C)(c1cc(Nc3nccc4cc(OCc5cocn5)cnc34)cc(F)c1F)N=C(N)S2 [Example 728, N-(3-((1S,5S,6S)-3-amino-1-(methoxymethyl)-5-methyl-2-thia-4-azabicyclo[4.1.0]hept-3-en-5-yl)-4,5-difluorophenyl)-3-(1,3-oxazol-4-ylmethoxy)-1,7-naphthyridin-8-amine] | 0.0238 | 0.553 | 0.0127 | 859 | 31 | 23
CN(C)C(=O)/C=C/[C@]12C[C@H]1[C@@](CF)(c1cc(Nc3nccc4cc(OCc5ncco5)cnc34)ccc1F)N=C(N)S2 [Example 770, (2E)-3-((1R,5S,6S)-3-amino-5-(fluoromethyl)-5-(2-fluoro-5-((3-(1,3-oxazol-2-ylmethoxy)-1,7-naphthyridin-8-yl)amino)phenyl)-2-thia-4-azabicyclo[4.1.0]hept-3-en-1-yl)-N,N-dimethyl-2-propenamide] | 0.00294 | 0.143 | 0.00281 | 311 | 22 | 6
C#CCOc1cnc(C(=O)Nc2ccc(F)c([C@@]3(C)N=C(N)S[C@@]4(C(=O)NC5CC5)C[C@H]43)c2)cn1 [Example 795, (1S,5S,6S)-3-amino-N-cyclopropyl-5-(2-fluoro-5-(((5-(2-propyn-1-yloxy)-2-pyrazinyl)carbonyl)amino)phenyl)-5-methyl-2-thia-4-azabicyclo[4.1.0]hept-3-en-1-carboxamide] | 0.0003 | 0.0104 | 0.000608 | 16.6 | 76 | 70
Cc1nc(OCc2ncco2)cnc1C(=O)Nc1cc(F)c(F)c([C@@]2(C)N=C(N)S[C@@]3(CF)C[C@H]32)c1 [Example 803, N-(3-((1S,5S,6S)-3-amino-1-(fluoromethyl)-5-methyl-2-thia-4-azabicyclo[4.1.0]hept-3-en-5-yl)-4,5-difluorophenyl)-3-methyl-5-(1,3-oxazol-2-ylmethoxy)-2-pyrazinecarboxamide] | 0.000643 | 0.0157 | 0.00228 | 1060 | 59 | 45
C[C@]1(c2cc(Nc3ncnc4cc(OCc5ncco5)cnc34)cc(F)c2F)N=C(N)S[C@@]2(CF)C[C@H]21 [Example 808, N-(3-((1S,5S,6S)-3-amino-1-(fluoromethyl)-5-methyl-2-thia-4-azabicyclo[4.1.0]hept-3-en-5-yl)-4,5-difluorophenyl)-7-(1,3-oxazol-2-ylmethoxy)pyrido[3,2-d]pyrimidin-4-amine] | 0.000866 | 0.0383 | 0.00111 | 127 | 44 | 26
C[C@]1(c2cc(Nc3ncnc4cc(OCc5ncco5)cnc34)cc(F)c2F)N=C(N)S[C@@]2(C(F)F)C[C@@H]12 [Example 812, N-(3-((1S,5S,6S)-3-amino-1-(difluoromethyl)-5-methyl-2-thia-4-azabicyclo[4.1.0]hept-3-en-5-yl)-4,5-difluorophenyl)-7-(1,3-oxazol-2-ylmethoxy)pyrido[3,2-d]pyrimidin-4-amine] | 0.000827 | 0.0642 | 0.00167 | 118 | 52 | 38
C[C@]1(c2cc(NC(=O)c3cnc(OCC(F)(F)F)cn3)cc(F)c2F)N=C(N)S[C@@]2(CF)C[C@H]21 [Example 814, N-(3-((1S,5S,6S)-3-amino-1-(fluoromethyl)-5-methyl-2-thia-4-azabicyclo[4.1.0]hept-3-en-5-yl)-4,5-difluorophenyl)-5-(2,2,2-trifluoroethoxy)-2-pyrazinecarboxamide] | 0.000829 | 0.0601 | 0.00608 | 595 | 76 | 68
